# Experimental data taken from PubChem BioAssay (NCI).
# Values joined by “and” are separate entries in the source; they are usually repeats but may differ in a detail not shown here. Equal entries are not always repeated.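 Each compound was tested at five concentrations against cells in 96-well plates for 48 hours. GI50: concentration for 50% inhibition of growth. Definition used: TGI = concentration required for complete inhibition of growth.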 *1 amine or outer side, *2 acyl side, *3 side chain or, on linkers, in order; H or OH if unused. Where a SMILES comes first, the peptide text is derived from it. [ ]: non-standard residue; d: D form. The star is where a group is joined. X31 = CC(=O)N(C)SCC(N[*:1])C(=O)[*:2]; Cbz = O=C(OCc1ccccc1)*; Bn = c1ccc(C*)cc1; For = O=C*
# Key:
# Assay in all cases: growth of human tumour cells (NCI), 48 h
# COLO 205 colon = tested on: COLO 205 colon
# HCC-2998 colon = tested on: HCC-2998 colon
# M14 melanoma = tested on: M14 melanoma
# MDA-MB-231 breast = tested on: MDA-MB-231 breast
# MDA-N = tested on: MDA-N
# OVCAR-5 ovarian = tested on: OVCAR-5 ovarian
# OVCAR-8 ovarian = tested on: OVCAR-8 ovarian
# RXF 393 renal = tested on: RXF 393 renal
# SF-539 CNS = tested on: SF-539 CNS
# SK-MEL-2 melanoma = tested on: SK-MEL-2 melanoma
# SN12C renal = tested on: SN12C renal
# UO-31 renal = tested on: UO-31 renal
# HOP-92 NSCLC = tested on: HOP-92 NSCLC
Structure (SMILES),TGI (COLO 205 colon),TGI (HCC-2998 colon),TGI (M14 melanoma),TGI (MDA-MB-231 breast),TGI (MDA-N),TGI (OVCAR-5 ovarian),TGI (OVCAR-8 ovarian),TGI (RXF 393 renal),TGI (SF-539 CNS),TGI (SK-MEL-2 melanoma),TGI (SN12C renal),TGI (UO-31 renal),TGI (HOP-92 NSCLC),GI50 (COLO 205 colon),GI50 (HCC-2998 colon),GI50 (HOP-92 NSCLC),GI50 (M14 melanoma),GI50 (MDA-MB-231 breast),GI50 (OVCAR-5 ovarian),GI50 (SN12C renal)
O=C(Nc1ccc(Cl)cc1)NS(=O)(=O)c1coc2cc(F)ccc2c1=O,> 100 µM,> 100 µM,> 100 µM,> 100 µM,> 100 µM,> 100 µM,> 100 µM,> 100 µM,> 100 µM,> 100 µM,> 100 µM,> 100 µM,–,–,–,–,–,–,–,–
C(=C\c1cccs1)/c1cccc(/C=C/c2cccs2)n1,> 100 µM,> 100 µM,> 100 µM,> 100 µM,> 100 µM,> 100 µM,> 100 µM,> 100 µM,> 100 µM,> 100 µM,> 100 µM,> 100 µM,> 100 µM,–,–,–,–,–,–,–
O=C(ON=C1c2ccccc2C(Br)C(Br)c2ccccc21)c1cc([N+](=O)[O-])cc([N+](=O)[O-])c1 (centres undefined),40 µM,68.3 µM,33.6 µM,35.6 µM,48.8 µM,43.8 µM,36.5 µM,36.6 µM,32.8 µM,> 71 µM,35.8 µM,–,39.8 µM,–,–,–,–,–,–,–
N#Cc1c(-c2ccccc2)cc(-c2ccccc2)n(C2OC(CO)C(O)C(O)C2O)c1=S (centres undefined),45.9 µM and > 100 µM,91 µM and > 100 µM,62.6 µM and > 100 µM,31.1 µM and 83 µM,60.5 µM and > 100 µM,> 100 µM,> 100 µM,> 100 µM,–,–,> 100 µM,> 100 µM,> 100 µM,17.9 µM and 43 µM,26.4 µM and 93.8 µM,46.6 µM and > 100 µM,25.1 µM and > 100 µM,7.15 µM and 23.9 µM,35.8 µM and > 100 µM,36.8 µM and 84.1 µM
CN(C)Nc1cc(=O)[nH]c(=O)[nH]1,> 100 µM,> 100 µM,> 100 µM,> 100 µM,> 100 µM,> 100 µM,> 100 µM,> 100 µM,> 100 µM,–,> 100 µM,> 100 µM,> 100 µM,–,–,–,–,–,–,–
CC1C2(C)OC(=N)C(C#N)(C(c3ccccc3)O2)C1(C#N)C#N (centres undefined),30.4 µM,22.7 µM,28 µM,35.4 µM,44.4 µM,69.5 µM,> 100 µM,87.5 µM,40.3 µM,42.7 µM,32 µM,> 100 µM,29.7 µM,–,–,–,–,–,–,–
COC(=O)[C@@H]1CN(C(C)=O)C(=O)N1,> 100 µM,> 100 µM,> 100 µM,> 100 µM,> 100 µM,> 100 µM,> 100 µM,> 100 µM,> 100 µM,> 100 µM,> 100 µM,> 100 µM,> 100 µM,–,–,–,–,–,–,–
CC[C@]1(Cc2ccc(OC)c(OC)c2)C=[N+]([O-])O[C@H](OC2CCCC2(c2ccccc2)c2ccccc2)[C@@H]1OC(=O)c1ccccc1 (some centres undefined),> 100 µM,> 27.4 µM,> 100 µM,> 100 µM,> 100 µM,> 100 µM,> 100 µM,> 25.9 µM,> 100 µM,37.5 µM,> 88.2 µM,> 100 µM,> 100 µM,–,–,–,–,–,–,–
CC(=O)N(C)SCC(NC(=O)C(Cc1ccccc1)NC(=O)OCc1ccccc1)C(=O)NC(Cc1ccccc1)C(=O)NC(Cc1cn(C=O)c2ccccc12)C(=O)NC(CCCCNC(=O)OCc1ccccc1)C(=O)NC(C(=O)NC(CSN(C)C(C)=O)C(=O)NC(C(N)=O)C(C)OCc1ccccc1)C(C)OCc1ccccc1 (centres undefined) (Cbz-F[X31]FW(For)K(Cbz)T(Bn)[X31]T(Bn)-NH2; configuration not given here),> 100 µM,> 100 µM,> 100 µM,30.5 µM,> 100 µM,> 100 µM,> 100 µM,41.9 µM,> 100 µM,28.7 µM,> 100 µM,> 100 µM,56.6 µM,–,–,–,–,–,–,–
O=c1oc2ccc3ccccc3c2cc1-c1cn2ccccc2n1,> 100 µM,> 100 µM,> 100 µM,> 100 µM,> 100 µM,–,> 100 µM,> 100 µM,> 100 µM,> 100 µM,> 100 µM,> 100 µM,> 100 µM,–,–,–,–,–,–,–
CC(=O)C(=C(c1ccccc1)c1ccccc1)c1ccccc1,> 100 µM,> 100 µM,> 100 µM,> 100 µM,> 100 µM,> 100 µM,> 100 µM,> 100 µM,> 100 µM,–,> 100 µM,> 100 µM,> 100 µM,–,–,–,–,–,–,–
O=C1NC2ON=C(c3ccccc3)C2C2ON=C(c3ccccc3)N12 (centres undefined),> 100 µM,> 100 µM,> 100 µM,> 100 µM,> 100 µM,> 100 µM,> 100 µM,> 100 µM,> 100 µM,–,–,> 100 µM,–,–,–,–,–,–,–,–
CCOC(=O)/C(C#N)=C\c1ccc(N(CCC(=O)O)CCC(=O)O)c(I)c1,> 10 µM,> 10 µM,> 10 µM,> 10 µM,> 10 µM,–,> 10 µM,> 10 µM,> 10 µM,–,> 10 µM,> 10 µM,> 10 µM,–,–,–,–,–,–,–
COC(=O)C1(CCC(C)=O)CCCCCC1=O (centres undefined),> 100 µM,> 100 µM,> 100 µM,> 100 µM,> 100 µM,> 100 µM,–,> 100 µM,> 100 µM,> 100 µM,> 100 µM,> 100 µM,> 100 µM,–,–,–,–,–,–,–
CCCCCCCCCCCCCCCCCCNC(=O)C(N)Cc1ccc(OCc2ccccc2)cn1 (centres undefined),28.8 µM,24.2 µM,33.3 µM,38.3 µM,49.2 µM,43.1 µM,37.3 µM,42.4 µM,–,33.3 µM,49.3 µM,32.5 µM,41.3 µM,–,–,–,–,–,–,–
CCSc1[nH]c(NC(=S)NC(=O)c2ccccc2Cl)c(C(N)=O)c1C(N)=O,> 10 µM,> 10 µM,> 10 µM,> 10 µM,> 10 µM,–,> 10 µM,> 10 µM,–,–,> 10 µM,–,> 10 µM,–,–,–,–,–,–,–
NC(N)=N/N=C/c1c(-c2ccc(Cl)cc2)nc2sccn12,2.87 µM,2.74 µM,3.17 µM,8.15 µM,3.33 µM,7.03 µM,–,2.95 µM,3.36 µM,4.31 µM,3.9 µM,7.49 µM,5.67 µM,–,–,–,–,–,–,–
